14 compounds from US8674096B2, “Substituted imidazo[1,5-a]quinoxalin-4-ones as phosphodiesterase 9 inhibitors” (priority 2009, dated 2014) can be followed below.

Each structure is given as a SMILES string. pIC50: −log10 of the molar value.

For orientation: melting point means the temperature of the solid-liquid transition. Broadly, the pIC50 is −log10 of the IC50, conventionally taken in molar units. A lower pIC50 goes with a large IC50.

The target of one series is T1, PDE9 (Homo sapiens, UniProt O76083).
T1 construct: made in house
In words: PDE9-inhibiting activity (SPA, 3H-cGMP degradation). The format is biochemical. On the procedure:
The PDE9 used in the present experiment was expressed/purified by the method as in, for example, Guipponi et al., and Fisher et., al. (Fisher, D. A., et al., J. Biol. Chem., 273: pp. 15559-15564 (1998), Guipponi, M., et al., Hum. Genet., 103: pp. 386-392 (1998)).
The PDE9-inhibiting activity was measured by the following method. That is, to a buffer solution containing tris(hydroxymethyl)aminomethane-hydrochloric acid (40 mM, pH 8.0), magnesium chloride (5 mM), and 2-mercaptoethanol (4 mM) were added cGMP (1 μM) and ^3H-cGMP (0.33 μCi/ml) to give a substrate buffer solution. A test substance solution and an enzyme solution which had been adjusted to an optimal concentration were added thereto to perform a reaction at 30° C. The enzyme reaction was stopped by the addition of Scintillation Proximity Assay (SPA) Beads (GE Healthcare, UK) containing 5 mM 3-isobutyl-1-methylxanthine (IBMX). For the enzyme activity, the amount of 5′-GMP, which is a reaction degradation product bound to SPA beads, was measured with a TopCount microplate reader (Hewlett Packard, USA).
The inhibitory rate was calculated by taking the radioactivity of the control containing no test substance as (A), taking the radioactivity of the blank containing no enzyme as (B), and taking the radioactivity of the test substance as (C), and using the following equation. Inhibitory rate=100−{(C)−(B)/(A)−(B)}×100(%)

T1 sequence (O76083 whole entry): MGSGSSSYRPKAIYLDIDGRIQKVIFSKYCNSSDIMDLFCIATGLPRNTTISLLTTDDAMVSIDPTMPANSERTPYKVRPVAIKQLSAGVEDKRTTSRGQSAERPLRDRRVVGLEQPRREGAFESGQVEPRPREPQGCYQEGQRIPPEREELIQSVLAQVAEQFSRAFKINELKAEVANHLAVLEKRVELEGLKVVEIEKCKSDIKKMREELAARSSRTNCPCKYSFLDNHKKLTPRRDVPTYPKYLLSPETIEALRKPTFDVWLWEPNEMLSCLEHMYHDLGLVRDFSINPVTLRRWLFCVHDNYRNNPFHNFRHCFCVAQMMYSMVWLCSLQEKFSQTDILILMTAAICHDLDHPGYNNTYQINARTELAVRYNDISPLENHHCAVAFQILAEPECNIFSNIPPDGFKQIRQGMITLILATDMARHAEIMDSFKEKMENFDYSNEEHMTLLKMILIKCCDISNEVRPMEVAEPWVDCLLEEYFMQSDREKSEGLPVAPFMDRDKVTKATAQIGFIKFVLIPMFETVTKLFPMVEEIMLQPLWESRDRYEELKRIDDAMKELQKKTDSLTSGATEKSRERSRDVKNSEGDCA

Regarding `Cc1cc2c(cc1C(=O)N1CCc3cc(F)ccc31)[nH]c(=O)c1nnc(C3(C)CCOCC3)n12.Cl` [Example 322], the melting point fell in the range of 243 to 245 °C. The compound further gave a pIC50 against PDE9 of 7.54.
With `Cl.O=C(c1cc2[nH]c(=O)c3cnc(C4CCOCC4)n3c2cc1OCCO)N1CCc2cc(Cl)ccc21` [Example 326], the melting point is 303 to 306 °C (dec.). In addition, the pIC50 against PDE9 was 8.92.
`Cc1cc2c(cc1C(=O)N1CCc3cc(Cl)ccc31)[nH]c(=O)c1cnc([C@H]3CC[C@@H](O)CC3)n12.Cl` [Example 330] displayed a melting point of 204 to 206 °C. At PDE9, this compound had a pIC50 of 8.92.
As for `COCc1cc2c(cc1C(=O)N1CCc3cc(OC)ncc31)[nH]c(=O)c1cnc(C3CCOCC3)n12` [Example 333], the melting point was 208 °C (dec.). The compound further showed a pIC50 against PDE9 of 8.54.
In the case of `COc1cc2c(cc1C(=O)N1Cc3ccccc3C1)[nH]c(=O)c1nnc(C3CCOCC3)n12.Cl` [Example 338], the melting point is 228 °C (dec.). In addition, the pIC50 at PDE9 was 7.55.
Take `Cc1cc2c(cc1C(=O)N1CCc3cc(F)cnc31)[nH]c(=O)c1cnc(C3CCOCC3)n12.Cl` [Example 344]: the melting point was 340 °C (dec.). On PDE9, this compound showed a pIC50 of 8.11.
The matching figures for `COCc1cc2c(cc1C(=O)N1CCc3cc(Cl)ccc31)[nH]c(=O)c1nnc(C3CCOCC3)n12` [Example 347]: 198 to 201 °C and 8.48.
The like results for `COCc1cc2c(cc1C(=O)N1CCc3ncccc3C1)[nH]c(=O)c1cnc(C3CCOCC3)n12` [Example 350] were, in that order, 172 to 175 °C and 8.04.
The matching figures for `Cc1cc2c(cc1C(=O)N1CCc3cc(Cl)ccc31)[nH]c(=O)c1nnc([C@H]3CC[C@@H](O)CC3)n12` [Example 356]: 277 to 279 °C and 8.82.
Take `Cc1cc2c(cc1C(=O)N1CCc3cc(Cl)ccc31)[nH]c(=O)c1nnc(C(O)C3CC3)n12` (stereo not shown) [Example 359]: the melting point was 260 to 262 °C (dec.). For the same compound, the pIC50 on PDE9 is 8.27.
The matching figures for `Cc1cc2c(cc1C(=O)N1CC(C)(C)c3cc(Cl)ccc31)[nH]c(=O)c1nnc(C3CCOCC3)n12.Cl` [Example 517]: 227 to 230 °C and 9.05.
The like results for `COCc1cc2c(cc1C(=O)N1CCc3cc(F)c(F)cc31)[nH]c(=O)c1nnc(C3CCOCC3)n12.Cl` [Example 519] were, in that order, 266 to 269 °C and 8.17.
The matching figures for `COCc1cc2c(cc1C(=O)N1CCc3cc(Cl)ccc31)[nH]c(=O)c1nnc(CC3CC3)n12.Cl` [Example 522]: 257 °C (dec.) and 8.44.
With `Cc1cc2c(cc1C(=O)N1CCc3cc(Cl)ccc31)[nH]c(=O)c1cnc([C@H]3CC[C@H](C(N)=O)CC3)n12` [Example 528], the melting point is 234 to 237 °C. At PDE9, the pIC50 is 9.05.
